Assay results taken from patent publication US6599499B1, “Uses of diterpenoid triepoxides as an anti-proliferative agent” (priority 1999, dated 2003).

Legend:
[1] = tested on: HT-29 human colon cancer cell line tumors; assay: Nude mouse xenograft, established HT-29 colon cancer tumors; type: in vivo, nude mice
Description: HT-29 tumor cells grown in tissue culture were harvested and implanted intradermally on the backs of nude mice. Tumor size was monitored by measuring the dimensions of each tumor and calculating tumor volume with a formula. […] PG490-88 treatment at 0.25 mg/kg was administered daily i.p. 5 days per week for 2 weeks. Navelbine at 10 mg/kg was given i.v. on days 0 and 7. Mice in the combination treatment group received PG490-88 i.p. and Navelbine i.v. at the appropriate times. The treatments were given to mice at 100 μl per 10 g of mouse body weight. Tumor dimensions were measured periodically for calculation of tumor volumes. […] The data are presented as mean percent change in tumor volume from day 0 for each treatment group. Toxicity of the treatment was monitored by weighing the mice daily 5 days per week. In FIG. 8, a comparison is provided for tumor volumes on Days 0 and 14. Tumor dimensions were measured periodically for calculation of tumor volumes, and the final determinations were made on day 14.

H23 human tumor cells = settings: day 14; PG490-88 0.25 mg/kg/day; taxol 10 mg/kg/day; IP
Description: Cell death reagents and assays. Cell viability was measured by an MTT assay as recently described (Lee et al. (1999) J. Biol. Chem. 274:13451-13455. z-VAD-fluoromethylketone (z-VAD.fmk) was obtained from Alexis Biochemicals, San Diego, Calif. The effect of z-VAD.fmk on cell viability was analyzed by annexin and propidium iodide staining followed by FACS analysis according to the manufacturer's protocol (Clontech Laboratories, Palo Alto, Calif.). The analysis of apoptosis in histologic sections was done by terminal deoxynucleotidyl transferase (TdT)-mediated d-UTP nick end labeling (TUNEL) of slides from paraffin sections of day 3 tumors harvested from the mice 24 h after the second of two daily treatments with PG490-88 or saline. TUNEL staining was done according to the manufacturer's protocol (Boehringer Mannheim, Indianapolis, Ind.) and then the histology slides were counterstained with methyl green. DNA was isolated from cells for analysis of internucleosomal DNA laddering followed by agarose gel electrophoresis and ethidium bromide staining.
Nude mouse xenograft model. Female NCr nude mice were purchased from Taconic, Germantown, N.Y., and were generally 20-24 grams when used. Mice were kept in autoclaved filter-top microisolator cages with autoclaved water and sterile food ad lib. The cages were maintained in an isolator unit providing filtered air (Lab Products, Inc., Maywood, N.J.). Tumor cells were grown and harvested as described above. NCr nude mice were injected intradermally with 5×10^6 tumor cells. In some experiments, treatment was initiated on the day of tumor cell implantation. […] Mice were treated IP daily for 5 days per week.
H23 tumor cells were implanted intradermally in nude mice. When the tumors reached approximately 100 mm^3, daily IP treatment with PG490-88 was initiated. […] The data in FIG. 3 represents the measurement of H23 tumor volume on day 14 after the initiation of treatment. Nude mice bearing xenografts of H23 human tumor cells were treated daily as shown. The data represent the means and the standard errors of the means of the tumor volumes as percent of the day 0 tumor volumes for each animal measured day 3, 6, 10 and 14 days after the initiation of treatment. There were 5 mice per group.

Dx5 cells = settings: cited from earlier work
HT1080 tumor cells = assay: Nude mouse xenograft, established HT1080 tumors; type: in vivo, nude mice; settings: PG490-88 0.75 mg/kg IP days 0-5 and 7-11, CPT-11 11 mg/kg IV days 1, 5, 9
Description: Mice. […] Nude mouse xenograft model. HT1080 tumor cells were grown in tissue culture flasks and harvested using EDTA and trypsin. Cells were centrifuged and the concentration of viable cells was appropriately adjusted. […] Tumor size was monitored after tumor cell implantation by measuring the width, length and thickness of the tumors and using a formula to calculate the volume. […] Control mice were left untreated. […] Combination therapy mice received both PG490-88 and CPT-11 treatments.

HT1080 cells = assay: Apoptosis by Annexin V and Propidium Iodide staining, HT1080 cells; type: cell-based, human; design: unit of the concentration uncertain; settings: HT1080, 20 h, PG490 pretreatment 4 h then CPT-11 16 h
Description: HT1080 cells were treated as shown and harvested for analysis of apoptosis by Annexin V and Propidium Iodide staining 20 h after treatment. In experiments with a combination of PG490 and CPT-11, cells were pretreated with PG490 for 4 h followed by the addition of CPT-11 for 16 h.

SMILES: CCC1=C[C@@H]2CN(C1)Cc1c([nH]c3ccccc13)[C@@](C(=O)OC)(c1cc3c(cc1OC)N(C)[C@H]1[C@@](O)(C(=O)OC)[C@H](OC(C)=O)[C@]4(CC)C=CCN5CC[C@]31[C@@H]54)C2 [Navelbine, vinorelbine, reference compound]
- increase in tumor volume from day 0 by day 14 ([1]; PG490-88 0.25 mg/kg i.p. 5 days per week for 2 weeks, Navelbine 10 mg/kg i.v. days 0 and 7): 343%
- Day 0 Tumor Volume (mm^3) Mean ([1]; baseline at grouping, before treatment): 109 mm^3

SMILES: CC(=O)O[C@H]1C(=O)[C@@]2(C)[C@H]([C@H](OC(=O)c3ccccc3)[C@]3(O)C[C@H](OC(=O)[C@H](O)[C@@H](NC(=O)c4ccccc4)c4ccccc4)C(C)=C1C3(C)C)[C@]1(OC(C)=O)CO[C@@H]1C[C@@H]2O [taxol, reference compound]
- tumor volume as % of the vehicle control (H23 human tumor cells): 42%
- fold more resistant than the MES-SA parent cell line (Dx5 cells): 1000 fold

SMILES: CCc1c2c(nc3ccc(OC(=O)N4CCC(N5CCCCC5)CC4)cc13)-c1cc3c(c(=O)n1C2)COC(=O)[C@]3(O)CC [CPT-11, irinotecan, reference compound]
- TV Mean Day 4 (HT1080 tumor cells): 157
- TV Mean Day 7 (HT1080 tumor cells): 209
- TV Mean Day 10 (HT1080 tumor cells): 268
- TV Mean Day 14 (HT1080 tumor cells): 495
- TV Mean Day 0 (HT1080 tumor cells; baseline): 107
- Apoptotic Cells (%) (HT1080 cells; CPT-11 (10 µM) alone, (10 μM) in combination with PG490 5 ng/ml): 5%
- Apoptotic Cells (%) (HT1080 cells; PG490 5 ng/ml, CPT-11 (5 µM) alone, (5 μM) in combination): 0%
